Patent US20240139136A1, “METHODS AND FORMULATIONS FOR TOPICAL ADMINISTRATION OF GABAPENTINOIDS” (VYLUMA INC., priority 2021, published 2024)

Each molecule was assayed on rats with post-surgical corneal injuries (assay: Capsaicin-induced ipsilateral paw (eye) wipes in rats with post-surgical corneal injury). Conditions: 3% ophthalmic formulation, topical; challenge with 40 μL 0.1% capsaicin 15 minutes after administration; compared with capsaicin-alone baseline; FIG. 1.
Type: in vivo
Description: Test ophthalmic formulations were administered to rats with post-surgical corneal injuries to test the efficacy of the formulations in treating corneal pain. A negative control was established by treating all animals with artificial tears (AT) and counting ipsilateral paw wipes for 60 seconds (FIG. 1, Baseline (Pre-induction)). 20 minutes later, a positive control was established by treating all animals with 40 μL 0.1% capsaicin and counting ipsilateral paw wipes for 60 seconds (FIG. 1, Baseline). Eyes were then flushed with balanced salt solution (BSS) and AT. 20 minutes later, all animals were treated with the test ophthalmic formulation (0.5% proparacaine (positive control), 3% nalbuphine, 3% pregabalin, or 3% ketamine). 15 minutes later, all animals were treated with 40 μL 0.1% capsaicin, and ipsilateral paw wipes were counted for 60 seconds (FIG. 1, 15 Minutes).
CNC1(c2ccccc2Cl)CCCCC1=O (stereo not drawn) [ketamine] was tested, and the “eye wipes (ipsilateral paw wipes counted for 60 seconds)” value (shortened to “eye wipes”) was “borderline response”.
With Oc1ccc2c3c1O[C@H]1[C@@H](O)CC[C@@]4(O)[C@@H](C2)N(CC2CCC2)CC[C@]314 [nalbuphine] the “eye wipes” value was “significant decrease”.
CC(C)C[C@H](CN)CC(=O)O [pregabalin] was tested, and the “eye wipes” value was “significant decrease”.
